Entries after “also recorded” stand apart in the source; their conditions may differ.
Key:
[1] = test system: c-jun; experiment: Northern analysis of c-jun RNA in melanocytes exposed to UV-B; type: cell-based, human; settings: for decrease of C-jun induction versus irradiated melanocytes in complete medium (TPA and IBMX) / RNA levels in the absence of the factor: FIG. 9; for decrease of C-jun induction versus irradiated melanocytes in complete medium (TPA and IBMX): medium without the factor (TPA 10 ng/ml or IBMX 0.1 mM) 24 hours, 100 mJ/cm^2 UVB, 1 hour after irradiation; for RNA levels in the absence of the factor: melanocytes not exposed to UVB
Description: Ultra-violet (“UV”) radiation can cause severe damage to cells, including genetic mutations, the promotion of cancer, and other adverse conditions. The potentially harmful effects for UV radiation for humans are mainly due to the UVB spectrum (ie, radiation having a wavelength of between 290 and 320 nanometers) (See: […], Soler N A Staff J S and Mihm M C Jr: “The human sunburn reaction: histologic and biochemical studies” J, Am. […] Another form of UV radiation is called “UVC”. UVC radiation in sunlight typically has a wavelength of the order of 254 nanometers. It is not as biologically relevant as UVB radiation however, because th UVC radiation in sunlight is strongly absorbed by the earth's ozone layer. accordingly, in the present study, we investigated the effects of UVB irradiation by melanocytes, and the changes to those effects by treating those cells with carotenoids. UVC wavelengths were blocked out of the experiments as the cells were incubated in plastic vessels. […] Wavelengths shorter than 280 nm wee cut off by keeping lids on tissue culture dishes. […] Total RNA was isolated by detergent lysis followed by phenol-chloroform extraction and ethanol precipitation. 15 micrograms of RNA was size-fractionated on denaturing formaldehyde/agarose gels and transferred to nylon filters by capillary blotting. […] After hybridization, filters were washed to a stringency of 0.5-0.1X SSC at 60° C. and autoradiographed at -80° C. for three to ten days using Fuji film. Autoradiographs are quantitated by densitometry using the GS-365 software (Hoefer Scientific). […] The c-fos probe was a 1.8 kb Xbo 1/Eco R I fragment from the plasmid BK 28 (Verma, 1988). The 185 probe was isolated by an EcoRI digest and isolation of the 5.6 kb fragment from the plasmid pB (Gonzalez, 1988). […] The 0.05 hour time indicates cells were harvested within 3 minutes following UV-B exposure. A “control” group received precisely the same treatment as the “treated” group, with the exception of being treated with beta-carotene.

[2] = test system: normal human melanocytes; experiment: DNA synthesis by tritiated thymidine incorporation in normal human melanocytes; type: cell-based; settings: for effect on DNA synthesis (percent tritiated thymidine incorporation): no UV
Method: FIGS. 1 and 5 refer to “Percent Tritiated Thymidine Incorporation” which is a measure of DNA synthesis activity.
(§1) Human neonatal foreskins were placed in 0.25% trypsin at 4° C. overnight. Following this incubation, the tissue was scraped to recover the melanocytes. The melanocytes were cultured in MCDB 151 (Sigma) medium containing 2% fetal calf serum, 0.3% bovine pituitary extract (Clonetics Corp.), 10 nanograms/ml TPA, 2 mM CaCl2, 5 micrograms/ml insulin and 0.1 mM IBMX (Sigma).
(§2) Cells were harvested with 0.25% trypsin and counted on a Coulter Counter (Coulter Instruments). Viability was determined by trypan blue exclusion. DNA synthesis was measured by labelling with (methyl-^3H)-thymidine (2.5 mCi/ml, 20 Ci/mmol, DuPont-New England Nuclear) added to the medium during the last 4 hours of incubation. Melanocytes were harvested using a Ph.D. cell harvester (Cambridge Research Inc.). the amount of radioactivity incorporated was determined by liquid scintillation counting (LS5000TD. Beckman Instruments).
(§3) Normal human melanocytes were seeded into the appropriate vessel (6 well plate, 96 well plate, 75 cm or 175 cm flask) and allowed to grow to 50-60% confluency. […] The 0.05 hour time indicates cells were harvested within 3 minutes following UV-B exposure.

[3] = test system: normal human melanocytes; settings: FIG. 2; 500 mJ/cm^2 UV-B; up to 24 hours after irradiation
Method: as §1, §2, §3

[4] = test system: c-fos; experiment: Northern analysis of c-fos RNA in melanocytes exposed to UV-B; type: cell-based, human
Method: as §3

[5] = test system: NF Kappa B; experiment: Gel mobility shift assay of NF Kappa B DNA binding activity in nuclear extracts of UV-B irradiated melanocytes; type: cell-based, human
Method: In summary, gel mobility shift assay using a NF Kappa B consensus sequence was performed to determine DNA binding activity of nuclear extracts from four normal Caucasian melanocyte (NCM) lines.
Cells were grown to approximately 50-60% confluency and treated as described in the experimental protocol described in section (i) below. The cells were allowed to swell in hypotonic buffer (10 mM HEPES, pH 7.8, 0.1 mM EDTA, 10 mM KCC, 1 mM DTT. PMSF for 15 minutes on ice). Cytosolic protein fraction was obtained after the addition of Nonider P-40 to a final concentration of 0.5% and separation from the nuclei by centrifugation (500×g. for 5 minutes). Nuclear proteins were extracted from the remaining pellet by dialysis with hypertonic buffer ([…], pH 7.9, 350 mM NaCl, 1 Mm DTT, 1 mM PMSF) for 2 hours at 10° C. Isolated nuclear protein was frozen and stored at −80° C. Quantitation was calculated from optical density readings of 230, 260 and 320 wavelengths.
Five microgram samples of each extract were incubated with 10,000 cpm of a ^32p-labelled consensus oligonucleotide of NF Kappa B. Following a 1 hour incubation, samples were electrophoresed in a low ionic strength polyacrylamide gel. Quantitation of protein; DNA complexes was accomplished by densitometry.
as §3

[6] = FIG. 6, 1 ug/ml for 24 hours, then 100 or 500 mJ/cm^2 UV-B, four melanocyte lines

SMILES	decrease of C-jun induction versus irradiated melanocytes in complete medium (TPA and IBMX) [1]	RNA levels in the absence of the factor [1]	effect on DNA synthesis (percent tritiated thymidine incorporation) ([2]; FIG. 1, highest beta-carotene dose, 24 hours incubation)	effect on DNA synthesis (percent tritiated thymidine incorporation) ([2]; FIG. 1, lower beta-carotene doses, 24 hours incubation)	effect on DNA synthesis at the chosen pre-treatment dose ([2]; FIG. 1, pre-treatment dose, 1.0 microgram/ml or 10 μg/ml, 24 hours incubation)	effect of pre-treatment on DNA synthesis after UV-B ([2]; FIG. 4, 4 hours after irradiation, 400 mJ/cm^2 of UV-B)	effect of pre-treatment on DNA synthesis (tritiated thymidine incorporation) after UV-B ([2]; FIG. 4, 24 hours following 400 mJ/cm^2 of UV-B)	persistence of the viability increase over the time course [3]	effect on induction of c-fos by UV-B ([4]; FIG. 3, 500 mJ/cm^2 UV-B, beta-carotene pre-treatment)	effect on UVB-induced C-fos expression [4, 6]	effect on induction of c-jun by UV-B ([1]; FIG. 3, 24 hours following 500 mJ/cm^2 UV-B irradiation)	increase of c-jun expression by beta-carotene ([1]; FIG. 3, four hours following 500 mJ/cm^2 UV-B irradiation)	effect on UVB-induced C-jun expression [1, 6]	effect on NF kappa B DNA binding activity ([5]; FIG. 7, 100 mJ/cm^2 UV-B)	inhibition at 1 µg/mL ([5]; Homo sapiens, Melanocyte, light or radiation study, FIG. 8, 500 mJ/cm^2 UV-B, first hour following irradiation, 1.0 ug/ml pre-treatment 24 hours)	protective effect of pre-treatment (NF Kappa B complex) ([5]; one hour following UVB irradiation at 500 mJ/cm^2, p value less than 0.05, Student's t-test)
CCCCCCCCCCCCCC(=O)O[C@@H]1[C@@H](C)[C@@]2(O)[C@@H](C=C(CO)C[C@]3(O)C(=O)C(C)=C[C@@H]23)[C@H]2C(C)(C)[C@]12OC(C)=O [TPA, O-Tetradecanoylphorbol 13-acetate]	approximately 50%	unaffected	–	–	–	–	–	–	–	–	–	–	–	–	–	–
CC1=C(/C=C/C(C)=C/C=C/C(C)=C/C=C/C=C(C)/C=C/C=C(C)/C=C/C2=C(C)CCCC2(C)C)C(C)(C)CCC1 [beta-carotene]	–	–	largely inhibited	little or no effect	minimal effect	not seen	increased	remained for the duration of the time course	essentially blocked	did not alter	completely blocked	11.1 fold	only a slight effect	slightly decreased; also recorded: moderate effect	> 50%	statistically significant protective effect
CC(C)Cn1c(=O)n(C)c(=O)c2[nH]cnc21 [IBMX, 3-Isobutyl 1-Methyl Xanthine]	approximately 50%	unaffected	–	–	–	–	–	–	–	–	–	–	–	–	–	–
